# Source: US20230312471A1 (priority 2020, published 2023)
# Where two headings read alike, the source gives them in different places.
# Columns and labels:
# Assay in all cases: biochemical
# 3CL^pro = 3CL^pro (Severe acute respiratory syndrome coronavirus 2, UniProt P0DTD1); type: binding, SARS-CoV-2
# PL^pro [1] = molecular target: T1, PL^pro (Severe acute respiratory syndrome coronavirus 2, UniProt P0DTD1); type: binding, SARS-CoV-2
# PL^pro [2] = molecular target: T1, PL^pro; type: biochemical, SARS-CoV-2
# [3] = read-out: IC50, inhibition of labelling of 3CL^pro by compound of formula (13)
compound,measurement,setting,value
O=C(/C=C/c1ccc(O)c2oc(-c3ccc(O)c(O)c3)cc12)O[C@H](Cc1ccc(O)c(O)c1)C(=O)O [salvianolic acid C],IC50,3CL^pro; [3],91 µM
O=C(/C=C/c1ccc(O)c2c1[C@H](C(=O)O)[C@@H](c1ccc(O)c(O)c1)O2)O[C@H](Cc1ccc(O)c(O)c1)C(=O)O [lithospermic acid],IC50,3CL^pro,32 µM
"COc1cc(/C=C/C(=O)CC(=O)/C=C/c2ccc(O)c(OC)c2)ccc1O [Compound M03, curcumin]",Inhibition of PL^pro labelling (in words),PL^pro [1],almost completely inhibited
same,Inhibition of enzyme activity of PL^pro (in words),PL^pro [2],inhibited enzyme activity
"S=C=NCCc1ccccc1 [Compound X05, Phenethyl isothiocyanate]",IC50,3CL^pro,43 µM
same,Inhibition of 3CL^pro labelling (in words),3CL^pro,incomplete inhibition
same,IC50,PL^pro [1],81 µM
same,Inhibition of PL^pro labelling (in words),PL^pro [1],incomplete inhibition
same,IC50,PL^pro [2],44 µM
same,Inhibition of enzyme activity of PL^pro (in words),PL^pro [2],inhibited enzyme activity
O=C(/C=C/c1ccc(O)c(O)c1/C=C/c1ccc(O)c(O)c1)O[C@H](Cc1ccc(O)c(O)c1)C(=O)O [salvianolic acid A],IC50,3CL^pro; [3],4.8 µM
O=C(/C=C/c1ccc(O)c(O)c1)O[C@H](Cc1ccc(O)c(O)c1)C(=O)O [rosmarinic acid],IC50,3CL^pro,10 µM
"O=C(/C=C/c1ccc(O)c2c1[C@H](C(=O)O[C@H](Cc1ccc(O)c(O)c1)C(=O)O)[C@@H](c1ccc(O)c(O)c1)O2)O[C@H](Cc1ccc(O)c(O)c1)C(=O)O [Compound M26, salvianolic acid B]",IC50,3CL^pro; [3],12 µM
